Consider 13 compounds from patent US8754226B2, “Piperidinyl-substituted lactams as GPR119 modulators” (Array BioPharma Inc., priority 2010, dated 2014).

For this assay, the system named is modified version of the GPR119 receptor (94% identity to human receptor). Put plainly: cAMP production assay (LANCE cAMP kit, TR-FRET) in HEK-293 cells. The conditions noted are these: for cAMP production in HEK-293 cells: HEK-293 cells stably expressing modified GPR119, test compounds 0.2 nM to 10 μM, one-hour incubation at ambient temperature; for Fold over baseline: increase in cAMP relative to basal levels, agonist activity if 1.5-fold or greater. The class given is cell-based. The method in brief:
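Doxycycline-induced (1 μg/mL, overnight) HEK-293 cells expressing modified GPR119 were thawed, 2000 cells/well, and exposed to compounds (0.2 nM-10 μM final, 0.5% DMSO) for 1 h at ambient temperature in HBSS/HEPES/BSA. cAMP was measured by LANCE TR-FRET against a standard curve. Agonism was defined as ≥1.5-fold over basal.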
(In general: Cyclic AMP is a second messenger, typically raised through Gs and lowered through Gi signalling.)

Regarding `CS(=O)(=O)c1cc(F)c(N[C@H]2CCN(C3CCN(c4ccc(C(F)(F)F)cn4)CC3)C2=O)cc1F` [Example 104, (S)-3-(2,5-difluoro-4-(methylsulfonyl)phenyl-amino)-1-(1-(5-(trifluoro-methyl)pyridin-2-yl)piperidin-4-yl)pyrrolidin-2-one], the “cAMP production in HEK-293 cells” value stood at 13.5 nmol and the Fold over baseline was 2.8.
The matching figures for `O=C1[C@@H](Oc2ccc3[nH]ncc3c2)CCN1C1CCN(c2cnc(Cl)cn2)CC1` [Example 74, (S)-3-(1H-indazol-5-yloxy)-1-(1-(5-chloropyrazin-2-yl)piperidin-4-yl)pyrrolidin-2-one]: 8.6 nmol and 2.2.
Turning to `CS(=O)(=O)c1cc(F)c(N[C@H]2CCN(C3CCN(c4ccc(C(F)(F)F)cn4)CC3)C2=O)c(F)c1` [Example 101, (S)-3-(2,6-difluoro-4-(methylsulfonyl)phenylamino)-1-(1-(5-(trifluoromethyl)pyridin-2-yl)piperidin-4-yl)pyrrolidin-2-one], the “cAMP production in HEK-293 cells” value stood at 6.6 nmol and the Fold over baseline is recorded as 2.0.
The matching figures for `CS(=O)(=O)c1cc(F)c(O[C@H]2CCN(C3CCN(c4ncc(-c5ccccn5)cn4)CC3)C2=O)cc1F` [Example 94, (S)-3-(2,5-difluoro-4-(methylsulfonyl)phenoxy)-1-(1-(5-(pyridin-2-yl)pyrimidin-2-yl)piperidin-4-yl)pyrrolidin-2-one]: 6.9 nmol and 2.0.
The matching figures for `CCc1cnc(N2CCC(N3CCC[C@H](Nc4c(F)cc(S(C)(=O)=O)cc4F)C3=O)CC2)nc1` [Example 49, (S)-3-(2,6-difluoro-4-(methylsulfonyl)phen-ylamino)-1′-(5-ethylpyrimidin-2-yl)-[1,4′-bipiperidin]-2-one]: 10.6 nmol and 2.2.
In the same order, the values of `Cc1cc(S(C)(=O)=O)ncc1N[C@H]1CCN(C2CCN(c3ncc(Cl)cc3Cl)CC2)C1=O` [Example 125, (S)-1-(1-(3,5-dichloro-pyridin-2-yl)piperidin-4-yl)-3-(4-methyl-6-(methylsulfonyl)pyridin-3-ylamino)pyrrolidin-2-one] are 9.0 nmol and 2.0.
For the compound `CS(=O)(=O)c1cc(F)c(N[C@H]2CCN(C3CCN(c4cnc(Cl)cn4)CC3)C2=O)c(F)c1` [Example 20, (S)-1-(1-(5-chloropyrazin-2-yl)piperidin-4-yl)-3-(2,6-difluoro-4-(methylsulfonyl)phenylamino) pyrrolidin-2-one], the “cAMP production in HEK-293 cells” value stood at 24.4 nmol and the Fold over baseline is 6.5.
In the same order, the values of `CCc1cnc(N2CCC(N3CCC(Oc4ccc(-c5nnn(C)n5)cc4)C3=O)CC2)nc1` (centres unmarked) [Example 68, 1-(1-(5-ethylpyrimidin-2-yl)piperidin-4-yl)-3-(4-(2-methyl-2H-tetrazol-5-yl)phenoxy)pyrrolidin-2-one] are 8.8 nmol and 1.9.
With `Cn1cc(-c2cnc(N3CCC(N4CC[C@H](Nc5ccc(S(C)(=O)=O)cc5F)C4=O)CC3)nc2)cn1` [Example 33, (S)-3-(2-fluoro-4-(methylsulfonyl)phenylamino)-1-(1-(5-(1-methyl-1H-pyrazol-4-yl)pyrimidin-2-yl)piperidin-4-yl)pyrrolidin-2-one], the “cAMP production in HEK-293 cells” value came to 15.9 nmol and the Fold over baseline stood at 3.3.
In the same order, the values of `Cc1ccccc1-c1cnc(N2CCC(N3CCC[C@H](Nc4cc(F)c(S(C)(=O)=O)cc4F)C3=O)CC2)cn1` [Example 61, (S)-3-(2,5-difluoro-4-(methylsulfonyl)phenylamino)-1′-(5-o-tolylpyrazin-2-yl)-[1,4′-bipiperidin]-2-one] are 19.6 nmol and 3.1.
In the case of `CS(=O)(=O)c1ccc(N[C@H]2CCCN(C3CCN(c4ncc(C(F)(F)F)cn4)CC3)C2=O)c(F)c1` [Example 41, (S)-3-(2-fluoro-4-(methyl-sulfonyl)phenylamino)-1′-(5-(trifluoromethyl)pyrimidin-2-yl)-1,4′-bipiperidin-2-one], the “cAMP production in HEK-293 cells” value was 7.4 nmol and the Fold over baseline is reported as 1.7.
Consider `CCc1cnc(N2CCC(N3CCC[C@H](Nc4ccc(S(C)(=O)=O)cc4C(F)(F)F)C3=O)CC2)nc1` [Example 55, (S)-1′-(5-ethylpyrimidin-2-yl)-3-(4-(methylsulfonyl)-2-(trifluoromethyl)phenylamino)-[1,4′-bipiperidin]-2-one], for which the “cAMP production in HEK-293 cells” value came to 9.3 nmol and the Fold over baseline stood at 2.6.
Turning to `CS(=O)(=O)c1ccc(N[C@H]2CCN(C3CCN(c4ncc(C#N)cn4)CC3)C2=O)c(F)c1` [Example 8, (S)-2-(4-(3-(2-fluoro-4-(methylsulfonyl)phenylamino)-2-oxopyrrolidin-1-yl)piperidin-1-yl)pyrimidine-5-carbonitrile], the “cAMP production in HEK-293 cells” value is 8.6 nmol and the Fold over baseline is 2.5.
